Data from ChEMBL document CHEMBL6177962, “Design, synthesis and biological evaluation of 2-arylbenzo[b]furan-4-vinylcarbonyl derivatives based on Salvianolic acid C as antioxidant neuroprotective agents for the treatment of ischemic stroke” (Eur J Med Chem, 2025).
Activity calls are given as the source filed them.

Tests used:
PC-12 [1] = experiment: Cytotoxicity against rat PC12 cells assessed as cell viability at 40 uM incubated for 24 hrs by CCK-8 assay relative to control; format: functional; conditions: read-out: Activity
PC-12 [2] = experiment: Cytotoxicity against rat PC12 cells assessed as cell viability at 10 uM incubated for 24 hrs by CCK-8 assay relative to control; format: functional; conditions: read-out: Activity
PC-12 [3] = experiment: Neuroprotective activity against t-BHP induced oxidative damage in rat PC12 cells model assessed as cell viability at 2.5 to 20 uM incubated for 24 hrs by CCK-8 assay; format: functional, cell-based; conditions: dose 2.5-20 µM
PC-12 [4] = experiment: Antioxidant activity in t-BHP -induced rat PC12 cells at 2.5 to 20 uM; format: functional, cell-based; conditions: dose 2.5-20 µM
PC-12 [5] = experiment: Neuroprotective activity against t-BHP induced oxidative damage in rat PC12 cells model assessed as cell viability at 10 uM incubated for 24 hrs by CCK-8 assay relative to control; format: functional; conditions: read-out: Activity
PC-12 [6] = experiment: Neuroprotective activity against t-BHP induced oxidative damage in rat PC12 cells model assessed as attenuation of intracellular ROS level at 2.5 uM incubated for 24 hrs by DCFH-DA probe based analysis; format: functional, cell-based
PC-12 [7] = experiment: Neuroprotective activity against t-BHP induced oxidative damage in rat PC12 cells model assessed as attenuation of intracellular ROS level at 5 uM incubated for 24 hrs by DCFH-DA probe based analysis; format: functional, cell-based
PC-12 [8] = experiment: Neuroprotective activity against t-BHP induced oxidative damage in rat PC12 cells model assessed as reduction in intracellular ROS level at 10 uM incubated for 24 hrs by DCFH-DA probe based analysis; format: functional, cell-based
PC-12 [9] = experiment: Neuroprotective activity against t-BHP induced oxidative damage in rat PC12 cells model assessed as reduction in intracellular ROS level at 2.5 to 10 uM incubated for 24 hrs by DCFH-DA probe based flow cytometry analysis; format: functional, cell-based; conditions: dose 2.5-10 µM
PC-12 [10] = experiment: Neuroprotective activity against t-BHP induced oxidative damage in rat PC12 cells model assessed as decrease in MDA level at 2.5 uM incubated for 24 hrs; format: functional, cell-based
PC-12 [11] = experiment: Neuroprotective activity against t-BHP induced oxidative damage in rat PC12 cells model assessed as decrease in MDA level at 5 uM incubated for 24 hrs; format: functional, cell-based
PC-12 [12] = experiment: Neuroprotective activity against t-BHP induced oxidative damage in rat PC12 cells model assessed as decrease in MDA level at 10 uM incubated for 24 hrs; format: functional, cell-based
PC-12 [13] = experiment: Neuroprotective activity against t-BHP induced oxidative damage in rat PC12 cells model assessed as increase in SOD activity at 2.5 uM incubated for 24 hrs; format: functional, cell-based
PC-12 [14] = experiment: Neuroprotective activity against t-BHP induced oxidative damage in rat PC12 cells model assessed as increase in SOD activity at 5 uM incubated for 24 hrs; format: functional, cell-based
PC-12 [15] = experiment: Neuroprotective activity against t-BHP induced oxidative damage in rat PC12 cells model assessed as increase in SOD activity at 10 uM incubated for 24 hrs; format: functional, cell-based
PC-12 [16] = experiment: Neuroprotective activity against t-BHP induced oxidative damage in rat PC12 cells model assessed as increase in NRF2 level incubated for 24 hrs by Western blot analysis; format: functional, cell-based; conditions: dose 2.5-10 µM
PC-12 [17] = experiment: Neuroprotective activity against t-BHP induced oxidative damage in rat PC12 cells model assessed as increase in HO-1 level incubated for 24 hrs by Western blot analysis; format: functional, cell-based; conditions: dose 2.5-10 µM
Rattus norvegicus [18] = experiment: Neuroprotective activity against cerebral ischemia-reperfusion injury in MCAO rat model assessed as reduction in infarct area at 5 to 20 mg/kg, iv treated after 2 hrs ischemia followed by reperfusion measured after 1 week of post-reperfusion by TTC staining based analysis; format: functional, organism-based; conditions: dose 5-20 mg/kg, time 1.0 weeks
Rattus norvegicus [19] = experiment: Neuroprotective activity against cerebral ischemia-reperfusion injury in MCAO rat model assessed as reduction in infarct area at 20 mg/kg, iv treated after 2 hrs ischemia followed by reperfusion measured after 1 week of post-reperfusion by TTC staining based analysis; format: functional, organism-based; conditions: time 1.0 weeks
Rattus norvegicus [20] = experiment: Neuroprotective activity against cerebral ischemia-reperfusion injury in MCAO rat model at 10 mg/kg, iv treated after 2 hrs ischemia followed by reperfusion measured after 1 week of post-reperfusion by barnes maze test; format: functional, organism-based; conditions: time 1.0 weeks
Rattus norvegicus [21] = experiment: Neuroprotective activity against cerebral ischemia-reperfusion injury in MCAO rat model assessed as reduction in ROS accumulation in cortex at 5 to 20 mg/kg, iv treated after 2 hrs ischemia followed by reperfusion measured after 1 week of post-reperfusion by dihydroethidium staining based fluorescence microscopic analysis; format: functional, organism-based; conditions: dose 5-20 mg/kg, time 1.0 weeks
Rattus norvegicus [22] = experiment: Neuroprotective activity against cerebral ischemia-reperfusion injury in MCAO rat model assessed as decrease in apoptotic cells in cerebral brain at 5 mg/kg, iv treated after 2 hrs ischemia followed by reperfusion measured after 1 week of post-reperfusion by TUNEL staining based analysis; format: functional, organism-based; conditions: time 1.0 weeks
Rattus norvegicus [23] = experiment: Neuroprotective activity against cerebral ischemia-reperfusion injury in MCAO rat model assessed as decrease in apoptotic cells in cerebral brain at 10 mg/kg, iv treated after 2 hrs ischemia followed by reperfusion measured after 1 week of post-reperfusion by TUNEL staining based analysis; format: functional, organism-based; conditions: time 1.0 weeks
Rattus norvegicus [24] = experiment: Neuroprotective activity against cerebral ischemia-reperfusion injury in MCAO rat model assessed as decrease in apoptotic cells in cerebral brain at 20 mg/kg, iv treated after 2 hrs ischemia followed by reperfusion measured after 1 week of post-reperfusion by TUNEL staining based analysis; format: functional, organism-based; conditions: time 1.0 weeks
Rattus norvegicus [25] = experiment: In vivo activation of Nrf2 pathway in MCAO induced rat model assessed as increase in NRF2 level in brain at 5 to 20 mg/kg, iv by immunofluorescence analysis; format: functional, organism-based; conditions: dose 5-20 mg/kg
Rattus norvegicus [26] = experiment: In vivo activation of Nrf2 pathway in MCAO induced rat model assessed as increase in NRF2 level in cytoplasm at 5 to 20 mg/kg, iv by Western blot analysis; format: functional, organism-based; conditions: dose 5-20 mg/kg
Rattus norvegicus [27] = experiment: In vivo activation of Nrf2 pathway in MCAO induced rat model assessed as increase in NRF2 level in nucleus at 5 to 20 mg/kg, iv by Western blot analysis; format: functional, organism-based; conditions: dose 5-20 mg/kg
Rattus norvegicus [28] = experiment: Upregulation of NRF2 level in MCAO rat model at 5 to 20 mg/kg, iv by Western blot analysis; format: functional, organism-based; conditions: dose 5-20 mg/kg
Rattus norvegicus [29] = experiment: […] of HO-1 level rat model at 5 to 20 mg/kg, iv by Western blot analysis; format: functional, organism-based; conditions: dose 5-20 mg/kg
[30] = biological target: Kelch-like ECH-associated protein 1 (Rattus norvegicus) (UniProt P57790); experiment: Binding affinity to KEAP1 in rat PC12 cells assessed as thermal stabilization at 10 uM incubated for 3 hrs at 4 degreeC by CETSA; format: cell-based
PC-12 [31] = experiment: Downregulation of KEAP1 expression in rat PC12 cells at 10 uM incubated for 3 hrs by Western blot analysis; format: functional, cell-based
[32] = Metabolic stability in rat liver microsome assessed as parent compound remaining after 60 mins; format: ADME; conditions: liver microsomes, read-out: Stability
[33] = Permeability of the compound across blood brain barrier in mouse BEND3 cells at 10 uM incubated for 24 to 48 hrs by HPLC analysis; format: ADME, cell-based; conditions: time 24-48 hrs, read-out: permeability

Chain of Kelch-like ECH-associated protein 1 (Rattus norvegicus) (P57790 whole entry): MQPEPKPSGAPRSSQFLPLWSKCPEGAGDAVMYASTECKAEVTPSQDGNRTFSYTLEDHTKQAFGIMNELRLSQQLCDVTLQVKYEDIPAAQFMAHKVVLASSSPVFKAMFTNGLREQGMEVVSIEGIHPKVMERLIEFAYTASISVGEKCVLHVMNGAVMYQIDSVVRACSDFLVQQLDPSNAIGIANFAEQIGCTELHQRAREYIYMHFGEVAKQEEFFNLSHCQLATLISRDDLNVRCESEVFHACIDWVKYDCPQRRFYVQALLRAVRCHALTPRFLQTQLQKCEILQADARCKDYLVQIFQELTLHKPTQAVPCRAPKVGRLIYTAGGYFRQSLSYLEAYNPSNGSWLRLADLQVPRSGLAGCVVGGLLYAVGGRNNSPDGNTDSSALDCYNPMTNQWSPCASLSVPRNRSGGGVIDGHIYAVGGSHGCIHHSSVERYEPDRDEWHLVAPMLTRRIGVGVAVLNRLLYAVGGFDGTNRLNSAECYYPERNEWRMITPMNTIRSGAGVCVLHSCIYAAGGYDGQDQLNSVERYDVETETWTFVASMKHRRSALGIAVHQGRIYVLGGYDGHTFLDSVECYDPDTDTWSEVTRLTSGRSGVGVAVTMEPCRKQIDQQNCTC

COc1ccc(/C=C/C(=O)c2ccc(O)c(O)c2)c2cc(-c3ccc(C)cc3)oc12
7.46 ×10⁻⁶ cm/s: Papp at 10 µM [33]
101%: viability at 10 µM (PC-12 [2])
active: Activity (PC-12 [3]) | Activity (PC-12 [4]) | Activity (PC-12 [6]) | Activity (PC-12 [7]) | Activity (PC-12 [8]) | Activity (PC-12 [9]) | Activity (PC-12 [10]) | Activity (PC-12 [11]) | Activity (PC-12 [12]) | Activity (PC-12 [13]) | Activity (PC-12 [14]) | Activity (PC-12 [15]) | Activity (PC-12 [16]) Dose-dependent-effect | Activity (PC-12 [17]) Dose-dependent-effect | Activity (Rattus norvegicus [18]) | Activity (Rattus norvegicus [19]) | Activity (Rattus norvegicus [20]) | Activity (Rattus norvegicus [21]) | Activity (Rattus norvegicus [22]) | Activity (Rattus norvegicus [23]) | Activity (Rattus norvegicus [24]) | Activity (Rattus norvegicus [25]) | Activity (Rattus norvegicus [26]) | Activity (Rattus norvegicus [28]) | Activity (Rattus norvegicus [29]) | Activity [30] | Activity (PC-12 [31])
inactive: Activity (Rattus norvegicus [27])
95%: viability at 10 µM (PC-12 [5])
63.8%: remaining at 1 h [32]
109%: viability at 40 µM (PC-12 [1])
